Laboratory results as given in patent publication US20160046656A1, “NOVEL PHYTOSPHINGOSINE-1-PHOSPHATE DERIVATIVE, PREPARATION METHOD THEREFOR, AND COMPOSITION FOR PREVENTING AND TREATING HAIR LOSS OR FOR GROWING HAIR COMPRISING SAME” (PHYTOS CO., LTD., priority 2013, published 2016).

Key:
procollagen type I = assay: Collagen synthesis, procollagen type I C-peptide EIA kit; type: cell-based; details: human fibroblasts; for Collagen synthesis (%): 24 hours, serum free medium, 0 = 100; for synthesis of collagen, result in words: summary of Table 5
Procedure: (§1) To measure anti-wrinkle effects of N-C-P1P and O-C-P1P, effects of human fibroblasts on cell proliferation were measured via an MTT (3-[4,5-dimethylthiazol-2-yl]-2,5-diphenyltetrazolium bromide) assay. To observe collagen synthesis, procollagent type I, which is produced in human fibroblasts (e.g., dermal cells), were measured.
To measure collagen synthesis, the human fibroblasts (e.g., dermal cells) were cultured in the same conditions as above for 24 hours. After removing the medium therefrom, a new serum free medium was substituted. […] The culture medium was used to measure amounts of synthesized collagen by using a procollagen type I C-peptide EIA kit, and the results measured therefrom are shown in Table 5 below.

C3H mice = assay: Hair growth test using C3H mice; type: in vivo, mouse; details: for effects on hair growth compared to positive control group: 0.01 weight % solution once a day vs 3% minoxidil preparation (Mynoxyl)
Procedure: A 6-week C3H mouse was purchased, and the hair on a dorsal part of the mouse was partially removed. Then, hair removal cream was applied to the dorsal part to completely remove the existing hair. A mouse of which the hair was not completely removed was excluded from the test. After finishing the hair removal, 5 mice were randomly bred per cage, and a total of 5 cages were used.
The mice were left one day or so after finishing depilation, and a test compound, which was prepared by dissolving O-C-P1P of Example 4 and N-C-P1P of Example 5 in a mixed solution of ethanol and ethoxydiglycol (9:1, v/v) to a concentration of 0.01 weight %, was applied once a day to the area from which the hair was removed. A negative control group was prepared by applying a mixed solution of ethanol and ethoxydiglycol without using the test compound, and a positive control group was 3% minoxidil preparation (Mynoxyl, Hyundai Pharm). After applying samples to the area from which the hair was removed, images of the area captured at the 14th and 18th days are shown in FIG. 3. […]

human fibroblasts = assay: Cell proliferation by MTT assay; type: cell-based; details: for Cell Viability (%): MTT, 0 = 100; for cell proliferation, result in words: summary of Table 4
Procedure: as §1
To measure cell proliferation, human fibroblasts were cultured for 24 hours in a Dulbecco's modified eagle medium (DMEM) medium supplemented with 10% FBS and 100 unit/mL of penicillin/streptomycin. The culture circumstances comprising culturing in a 5% CO2 incubator maintained at a temperature of 37° c. Then, after removing the medium therefrom, N-C-P1P and O-C-P1P were added thereto at different concentrations. The MTT assay was performed to measure effects of N-C-P1P and O-C-P1P on cell proliferation, and the results are summarized in Table 4.

[1] = 0.01 weight % in ethanol/ethoxydiglycol (9:1, v/v), applied once a day to depilated area, images at 14th and 18th days, FIG. 3

Structure (SMILES) | Collagen synthesis (%) (procollagen type I; concentration 0.1 μM) | Collagen synthesis (%) (procollagen type I; concentration 1 μM) | synthesis of collagen, result in words (procollagen type I) | effects on hair growth compared to negative control group (C3H mice; [1]) | effects on hair growth compared to positive control group (C3H mice; FIG. 3) | Cell Viability (%) (human fibroblasts; concentration 0.002%) | Cell Viability (%) (human fibroblasts; concentration 0.004%) | Cell Viability (%) (human fibroblasts; concentration 0.008%) | Cell Viability (%) (human fibroblasts; concentration 0.016%) | cell proliferation, result in words (human fibroblasts) | effects on hair growth compared to negative control group (C3H mice; 0.005, 0.01 and 0.02 weight % solutions, images at 13th and 17th days, FIG. 5) | difference in effects on hair growth among concentrations (C3H mice; 0.005 weight %, 0.01 weight % and 0.02 weight %, FIG. 5) | effects on hair growth compared to negative control group (C3H mice; liposomes containing O-C-P1P of Examples 6 and 7, once a day for 3 weeks, FIG. 4) | concentration giving the same effects on hair growth, times as low as the concentration of minoxidil (C3H mice; vs 3% minoxidil preparation)
CCCCCCCCCCCCCC[C@@H](O)[C@@H](O)[C@@H]1COP(=O)(O)N1 [N-C-P1P, N-cyclic phytospingosine-1-phosphate] | 110 | 125 | promoting synthesis of collagen | significantly better | quite less | 120 | 110 | 110 | 125 | promoting cell proliferation |  |  |  | 
CCCCCCCCCCCCCC[C@@H](O)[C@H]1OP(=O)(O)OC[C@@H]1N [O-C-P1P, O-cyclic phytospingosine-1-phosphate] | 120 | 140 | promoting synthesis of collagen | rapid growth of hair | effects on faster hair growth were shown better | 128 | 135 | 143 | 160 | promoting cell proliferation | significant effects on hair growth | no significant different | significant effects on hair growth | about 300 times
